Reference: ChEMBL document CHEMBL3217587, “The discovery of N-1 substituted 2-aminobenzimidazoles as zinc-dependent S. aureus biofilm inhibitors” (Medchemcomm, 2012)
Values after ≈ are worked out from the molar mass of the structure shown. Active and inactive are the calls of the source. The rule behind the calls is not given here.

Tests used:
Staphylococcus aureus [1] = test: Antimicrobial activity against methicillin-resistant Staphylococcus aureus ATCC BAA-44 after 16 hrs by broth microdilution method; format: functional; conditions: ATCC BAA-44, 16 h
Staphylococcus aureus [2] = test: Antimicrobial activity against methicillin-resistant Staphylococcus aureus ATCC 43300 assessed as inhibition of biofilm formation after 24 hrs by crystal violet staining-based microscopy; format: functional, organism-based; conditions: ATCC 43300, 24 h
Acinetobacter baumannii = test: Antimicrobial activity against multidrug-resistant Acinetobacter baumannii ATCC BAA-1605 after 16 hrs by broth microdilution method; format: functional; conditions: ATCC BAA-1605, 16 h
Staphylococcus aureus [3] = test: Antimicrobial activity against methicillin-resistant Staphylococcus aureus ATCC 43300 after 16 hrs by broth microdilution method; format: functional; conditions: ATCC 43300, 16 h
Staphylococcus aureus [4] = test: Antimicrobial activity against methicillin-resistant Staphylococcus aureus ATCC BAA-44 assessed as inhibition of biofilm formation after 24 hrs by crystal violet staining-based microscopy; format: functional, organism-based; conditions: ATCC BAA-44, 24 h
Staphylococcus aureus [5] = test: Antimicrobial activity against methicillin-resistant Staphylococcus aureus ATCC BAA-1556 after 16 hrs by broth microdilution method; format: functional; conditions: ATCC BAA-1556, 16 h
Staphylococcus aureus [6] = test: Antimicrobial activity against methicillin-resistant Staphylococcus aureus ATCC BAA-1753 after 16 hrs by broth microdilution method; format: functional; conditions: ATCC BAA-1753, 16 h
Staphylococcus aureus [7] = test: Antimicrobial activity against methicillin-susceptible Staphylococcus aureus ATCC 29213 after 16 hrs by broth microdilution method; format: functional; conditions: ATCC 29213, 16 h
Staphylococcus aureus [8] = test: Toxicity in methicillin-resistant Staphylococcus aureus ATCC BAA-44 assessed as inhibition of planktonic cell growth at IC50 after 2 to 24 hrs by spectrophotometry; format: organism-based
Staphylococcus aureus [9] = test: Toxicity in methicillin-resistant Staphylococcus aureus ATCC 43300 assessed as inhibition of planktonic cell growth at IC50 after 2 to 24 hrs by spectrophotometry; format: organism-based
Staphylococcus aureus [10] = test: Antimicrobial activity against methicillin-resistant Staphylococcus aureus ATCC 700789 after 16 hrs by broth microdilution method; format: functional; conditions: ATCC 700789, 16 h
Staphylococcus aureus [11] = test: Antimicrobial activity against methicillin-resistant Staphylococcus aureus ATCC 33591 after 16 hrs by broth microdilution method; format: functional; conditions: ATCC 33591, 16 h
Staphylococcus aureus [12] = test: Antimicrobial activity against methicillin-resistant Staphylococcus aureus ATCC BAA-1685 after 16 hrs by broth microdilution method; format: functional; conditions: ATCC BAA-1685, 16 h
Staphylococcus aureus [13] = test: Antimicrobial activity against methicillin-resistant Staphylococcus aureus ATCC BAA-811 after 16 hrs by broth microdilution method; format: functional; conditions: ATCC BAA-811, 16 h
Pseudomonas aeruginosa = test: Antimicrobial activity against Pseudomonas aeruginosa PA14 after 16 hrs by broth microdilution method; format: functional; conditions: PA14, 16 h
Staphylococcus aureus [14] = test: Antibiofilm activity against methicillin-resistant Staphylococcus aureus ATCC 43300 assessed as biofilm dispersal at 20 uM after 24 hrs by crystal violet staining-based microscopy; format: functional, organism-based

| Compound | MIC (Staphylococcus aureus [1]) | IC50 (Staphylococcus aureus [2]) | MIC (Acinetobacter baumannii) | MIC (Staphylococcus aureus [3]) | IC50 (Staphylococcus aureus [4]) | MIC (Staphylococcus aureus [5]) | MIC (Staphylococcus aureus [6]) | MIC (Staphylococcus aureus [7]) | Activity (Staphylococcus aureus [8]) | Activity (Staphylococcus aureus [9]) | MIC (Staphylococcus aureus [10]) | MIC (Staphylococcus aureus [11]) | MIC (Staphylococcus aureus [12]) | MIC (Staphylococcus aureus [13]) | MIC (Pseudomonas aeruginosa) | Activity (Staphylococcus aureus [14]) |
| --- | --- | --- | --- | --- | --- | --- | --- | --- | --- | --- | --- | --- | --- | --- | --- | --- |
| CCCCCc1ccc(C(=O)Nc2ccc3c(c2)nc(N)n3Cc2ccccc2)cc1.Cl | > 64 µg/mL | 5.2 µM | > 64 µg/mL | > 64 µg/mL | 6.8 µM | > 64 µg/mL | > 64 µg/mL | > 64 µg/mL | Non-toxic | Non-toxic | > 64 µg/mL | > 64 µg/mL | > 64 µg/mL | > 64 µg/mL | > 64 µg/mL | inactive |
| CCCCCc1ccc(C(=O)Nc2ccc3c(c2)nc(N)n3Cc2ccc(OC)cc2)cc1.Cl | 16 µg/mL | 5.7 µM | > 64 µg/mL | 16 µg/mL | 11.5 µM | 16 µg/mL | > 64 µg/mL | > 64 µg/mL | Toxic | Non-toxic | 16 µg/mL | 16 µg/mL | 16 µg/mL | 16 µg/mL | > 64 µg/mL | inactive |
| CCCCCc1ccc(C(=O)Nc2ccc3c(c2)nc(N)n3CCc2cccc3ccccc23)cc1.Cl | > 64 µg/mL | > 20 µM | > 64 µg/mL | > 64 µg/mL | > 20 µM | > 64 µg/mL | > 64 µg/mL | > 64 µg/mL | – | – | > 64 µg/mL | 64 µg/mL | > 64 µg/mL | > 64 µg/mL | > 64 µg/mL | inactive |
| CCCCCc1ccc(C(=O)Nc2ccc3c(c2)nc(N)n3C2CCCC2)cc1.Cl | 16 µg/mL | 3.6 µM | > 64 µg/mL | 8 µg/mL | 4.3 µM | 8 µg/mL | 8 µg/mL | 16 µg/mL | Non-toxic | Non-toxic | 16 µg/mL | 8 µg/mL | 8 µg/mL | 16 µg/mL | > 64 µg/mL | inactive |
| CCCCCCCCCCCCn1c(N)nc2cc(NC(=O)c3ccc(CCCCC)cc3)ccc21.Cl | > 64 µg/mL | > 20 µM | > 64 µg/mL | > 64 µg/mL | > 20 µM | > 64 µg/mL | > 64 µg/mL | > 64 µg/mL | – | – | > 64 µg/mL | > 64 µg/mL | > 64 µg/mL | > 64 µg/mL | > 64 µg/mL | inactive |
| CCCCCc1ccc(C(=O)Nc2ccc3c(c2)nc(N)n3CCc2cccc(OC)c2)cc1.Cl | 32 µg/mL | 6.1 µM | > 64 µg/mL | 16 µg/mL | 9.3 µM | 16 µg/mL | 16 µg/mL | 16 µg/mL | Non-toxic | Toxic | 16 µg/mL | 16 µg/mL | 16 µg/mL | 16 µg/mL | > 64 µg/mL | inactive |
| CCCCCc1ccc(C(=O)Nc2ccc3c(c2)nc(N)n3CCc2ccc(OC)cc2)cc1.Cl | 16 µg/mL | 6.2 µM | > 64 µg/mL | 8 µg/mL | 10.4 µM | 8 µg/mL | 16 µg/mL | 16 µg/mL | Toxic | Toxic | 16 µg/mL | 16 µg/mL | 8 µg/mL | 16 µg/mL | > 64 µg/mL | inactive |
| CCCCCc1ccc(C(=O)Nc2ccc3c(c2)nc(N)n3CCCCc2c[nH]c3ccccc23)cc1.Cl | 32 µg/mL | 5.7 µM | > 64 µg/mL | 32 µg/mL | 7.9 µM | 32 µg/mL | 64 µg/mL | 64 µg/mL | Toxic | Toxic | 32 µg/mL | 32 µg/mL | 32 µg/mL | 64 µg/mL | > 64 µg/mL | inactive |
| CCCCCc1ccc(C(=O)Nc2ccc3c(c2)nc(N)n3CCc2c[nH]c3ccccc23)cc1.Cl | 16 µg/mL | 3.7 µM | > 64 µg/mL | 16 µg/mL | 4.4 µM | 16 µg/mL | 16 µg/mL | 16 µg/mL | Toxic | Toxic | 16 µg/mL | 8 µg/mL | 16 µg/mL | 8 µg/mL | > 64 µg/mL | inactive |
| CCCCCc1ccc(C(=O)Nc2ccc3[nH]c(N)nc3c2)cc1 | 8 µg/mL (≈ 24.8 µM) | 13.9 µM | 16 µg/mL (≈ 49.6 µM) | 16 µg/mL (≈ 49.6 µM) | > 20 µM | 8 µg/mL (≈ 24.8 µM) | 8 µg/mL (≈ 24.8 µM) | 16 µg/mL (≈ 49.6 µM) | – | Toxic | 8 µg/mL (≈ 24.8 µM) | 16 µg/mL (≈ 49.6 µM) | 16 µg/mL (≈ 49.6 µM) | 8 µg/mL (≈ 24.8 µM) | 16 µg/mL (≈ 49.6 µM) | – |
| CCCCCc1ccc(C(=O)Nc2ccc3c(c2)nc(N)n3C)cc1.Cl | 32 µg/mL | > 20 µM | 64 µg/mL | 16 µg/mL | > 20 µM | 32 µg/mL | 8 µg/mL | 16 µg/mL | – | – | 64 µg/mL | 32 µg/mL | 16 µg/mL | 64 µg/mL | 64 µg/mL | inactive |
| CCCCCc1ccc(C(=O)Nc2ccc3c(c2)nc(N)n3-c2ccc(CCCCC)cc2)cc1.Cl | > 64 µg/mL | > 20 µM | > 64 µg/mL | > 64 µg/mL | > 20 µM | > 64 µg/mL | 64 µg/mL | 64 µg/mL | – | – | > 64 µg/mL | > 64 µg/mL | 64 µg/mL | > 64 µg/mL | > 64 µg/mL | inactive |
| CCCCCc1ccc(C(=O)Nc2ccc3c(c2)nc(N)n3CCc2nc3ccccc3[nH]2)cc1.Cl | > 64 µg/mL | 7 µM | > 64 µg/mL | > 64 µg/mL | > 20 µM | 64 µg/mL | > 64 µg/mL | > 64 µg/mL | – | Non-toxic | > 64 µg/mL | 64 µg/mL | > 64 µg/mL | > 64 µg/mL | > 64 µg/mL | inactive |
